Test results taken from patent publication US20220194962A1, “AZAZINOINDAZOLE DERIVATIVE, PREPARATION METHOD THEREFOR AND USE THEREOF” (CHENGDU SCIMOUNT PHARMATECH CO., LTD., priority 2019, published 2022).
Like-named read-outs stand apart in the source and are kept apart here.

Target: T1, human 5-HT3 receptor (Homo sapiens, UniProt P46098)
T1 sequence (P46098 24-478): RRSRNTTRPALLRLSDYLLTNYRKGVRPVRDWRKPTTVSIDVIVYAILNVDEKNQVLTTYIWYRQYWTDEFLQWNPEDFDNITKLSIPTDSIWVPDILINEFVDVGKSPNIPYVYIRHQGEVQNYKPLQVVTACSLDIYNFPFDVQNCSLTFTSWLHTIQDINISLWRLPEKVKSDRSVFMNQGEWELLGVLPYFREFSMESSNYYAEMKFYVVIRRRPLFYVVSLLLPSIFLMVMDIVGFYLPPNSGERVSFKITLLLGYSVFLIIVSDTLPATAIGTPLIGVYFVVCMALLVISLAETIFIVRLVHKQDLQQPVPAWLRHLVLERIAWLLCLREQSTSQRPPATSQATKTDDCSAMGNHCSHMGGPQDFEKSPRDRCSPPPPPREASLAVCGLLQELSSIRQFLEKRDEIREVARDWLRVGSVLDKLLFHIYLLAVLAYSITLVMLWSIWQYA
Experiment: Affinity for human 5-HT3 receptor by scintillation proximity assay (SPA), [9-methyl-3H]BRL-43694 competition
Format: binding
Experimental: The relative affinity of the compound to human 5-HT3 receptor was detected by scintillation proximity assay (SPA). The specific procedures were as follows: the test compound was diluted to 10 mM with 100% DMSO, and then subjected to 10× gradient dilution with 100% DMSO in a 96-well plate, and each of the resultant solution was further diluted with the test buffer to provide 4× test concentration. The sample, 10 nM of [9-methyl-3H]BRL-43694, 3 μg of human 5-HT3 receptor membrane, and 0.5 mg/mL of SPA beads were incubated in 50 mM Tris-HCl (pH 7.5, 3 mM MgCl2, 1 mM EDTA and 10% DMSO), with a final volume of 0.2 mL. By successively adding 50 μL of competitive test compound or buffer, SPA beads, radioactive ligands and 5-HT3 receptor membrane, the binding reaction was performed in the wells of PicoPlates-96 well plate. After it was stirred and incubated overnight at room temperature, the plate was centrifuged at 1500 rpm for 15 min, and then incubated in dark for 30 min. Finally, the 5-min radioactivity was read in the TopCount microplate counter. Total binding control only contained the above buffer used to dilute the test compound, while the nonspecific binding was determined at the presence of 30 μM MDL-72222, and thus the specific binding was deduced by the total binding control minus the nonspecific binding. All experiments were carried out by ten concentrations of competitive ligand, and each group was established multiple holes. ALB-137391 was used as positive control.
ALB-137391 was a 5-HT3 receptor partial agonist, and provided by AMRI company, USA, with a production batch number of 1631-B-R0-01-43-01. The structure was as follows:
The half inhibitory concentration (IC50) was determined from the specific binding data by using XLfit4.1 curve fitting software of IDBS Ltd.
Inhibition constant Ki=IC50/(1+(L/KD)), wherein L=the concentration of radioactive ligands in the test, KD=the affinity of radioactive ligands to receptors.

Compound | IC50 [nM] | Ki [nM] | affinity to human 5-HT3 receptor (in words) (summary of Table 1) | IC50 (human 5-HT3 receptor membrane, 10 nM [9-methyl-3H]BRL-43694, SPA, overnight at room temperature, read-out: IC50) [nM] | affinity and inhibitory effect on 5-HT3 receptor compared with positive control ALB-137391 (summary of Table 1)
O=C1c2ccc(F)c3[nH]nc(c23)CCN1[C@@H]1CN2CCC1CC2 [Compound 14, (S)-3-fluoro-7-(quinuclidin-3-yl)-2,7,8,9-tetrahydro-6H-azepino[5,4,3-cd]indazole-6-one] | 74 | 13.4 | strong affinity | – | –
N#Cc1ccc2c3c(n[nH]c13)CCN([C@@H]1CN3CCC1CC3)C2=O [Compound 11, (S)-3-cyano-7-(quinuclidin-3-yl)-2,7,8,9-tetrahydro-6H-azepino[5,4,3-cd]indazole-6-one] | – | 65.1 | – | 359 | –
[2H]c1ccc2c3c(n[nH]c13)CCN([C@@H]1CN3CCC1CC3)C2=O [Compound 13, (S)-3-deutero-7-(quinuclidin-3-yl)-2,7,8,9-tetrahydro-6H-azepino[5,4,3-cd]indazole-6-one] | 3.31 | 0.6 | strong affinity | – | even better than that of positive control ALB-137391
O=C1c2ccc(O)c3[nH]nc(c23)CCN1[C@@H]1CN2CCC1CC2 [Compound 12, (S)-3-hydroxyl-7-(quinuclidin-3-yl)-2,7,8,9-tetrahydro-6H-azepino[5,4,3-cd]indazole-6-one] | 14 | 2.53 | strong affinity | – | –
O=C1c2ccc(Cl)c3[nH]nc(c23)CCN1[C@@H]1CN2CCC1CC2 [Compound 15, (S)-3-chloro-7-(quinuclidin-3-yl)-2,7,8,9-tetrahydro-6H-azepino[5,4,3-cd]indazole-6-one] | 47.1 | 8.53 | strong affinity | – | –
O=C1c2ccc(Br)c3[nH]nc(c23)CCN1[C@@H]1CN2CCC1CC2 [Compound 10, (S)-3-bromo-7-(quinuclidin-3-yl)-2,7,8,9-tetrahydro-6H-azepino[5,4,3-cd]indazole-6-one] | 34.2 | 6.2 | strong affinity | – | –
O=C1c2cccc3[nH]nc(c23)CCN1[C@@H]1CN2CCC1CC2 [ALB-137391, reference compound] | 4.48 | 0.81 | – | – | –
